Data as given in patent publication US6599917B1, “Quinuclidine compounds and drugs containing the same as the active ingredient” (priority 1999, dated 2003).

Assays:
[1] = target: T1, squalene synthesizing enzyme (Rattus norvegicus, UniProt Q02769); test: Measurement of squalene synthesizing enzyme inhibitive activity by using a rat liver microsome; type: biochemical; conditions: [3H]-farnesylpyrophosphoric acid
T1 construct: The liver was excised from a male Spraugue-Dawly rat; from tissue; host or cells: liver microsome fraction of male Sprague-Dawley rat (8 to 9 weeks)
T1 sequence (Q02769 1-416): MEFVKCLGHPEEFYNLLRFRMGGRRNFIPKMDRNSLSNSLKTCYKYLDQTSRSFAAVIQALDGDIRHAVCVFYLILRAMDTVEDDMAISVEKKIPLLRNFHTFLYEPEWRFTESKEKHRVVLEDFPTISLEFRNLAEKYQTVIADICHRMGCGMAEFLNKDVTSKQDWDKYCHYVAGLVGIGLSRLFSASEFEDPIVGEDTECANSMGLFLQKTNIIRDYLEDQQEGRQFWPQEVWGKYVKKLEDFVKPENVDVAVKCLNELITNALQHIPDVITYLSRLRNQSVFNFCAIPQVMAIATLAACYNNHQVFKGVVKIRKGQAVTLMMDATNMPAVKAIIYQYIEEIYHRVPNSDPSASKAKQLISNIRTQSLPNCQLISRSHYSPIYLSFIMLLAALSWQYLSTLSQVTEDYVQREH
Procedure: Measurement of Squalene Synthesizing Enzyme Inhibitive Activity by Using a Rat Liver Microsome
(I) The reaction was run on a scale of 500 μ1. 200 µl of a solution containing 125 mM tris-hydrochloric acid (pH: 7.3), 2.5 mM magnesium chloride, 5 mM potassium fluoride and 10 mM reduction type nicotinamidoadenine dinucleotide phosphoric acid, 100 µl of the specimen solution with a 5-fold concentration, 100 µl of distilled water and 50 µl of 0.4 to 1 mg/ml rat liver microsome prepared by the following method were mixed.
(II) The above mixture was pre-incubated at 37° C. for 10 minutes and thereafter, 50 µl of 100 μM [^3H]-farnesylpyrophosphoric acid (30 mCi/mmol, NEN) was added to the mixture to start a reaction. The reaction was continued at 37° C. for 10 minutes. 1 ml of ethanol was added to the resulting mixture to terminate the reaction and then 1 ml of distilled water and 3 ml of petroleum ether were added to the reaction solution, which was then shaken for 30 minutes. The water phase was separated from the oil phase, the water phase was frozen at −70° C. in dry ice/methanol and the radiative activity of the organic phase was measured using a liquid scintillator. Or the organic phase was evaporated to dryness using nitrogen gas and the residue was dissolved as a marker in 25 µl of chloroform containing squalene, farnesol and cholesterol. This sample was spotted on a TCL plate (Merck) and developed using heptane for 15 to 20 minutes. A band of squalene was cut from the plate to measure the radiative activity by using a liquid scintillation counter. The data was expressed by a concentration (IC50) at which 50% of the radiative activity of a control group was inhibited.
Method of the Preparation of a Rat Liver Microsome
The following operations were all carried out on ice and the centrifugation was performed at 4° C. The liver was excised from a male Spraugue-Dawly rat (hereinafter referred to as SD rat) (8 to 9 weeks age) and perfused with 1.15% potassium chloride to remove the blood. Then, the liver was minced using a forceps and the minced liver was homogenized using a Teflon homogenizer. The resulting sample was centrifuged at 16000×g twice for 15 minutes. The supernatant was further centrifuged at 105000×g for 60 minutes. The obtained deposit was determined as a microsome fraction, which was then suspended in a 25 mM tris-hydrochloric acid solution. The concentration of protein was measured quantitatively by a Bradford method and the concentration of protein was adjusted to 20 mg/ml by using the same solution. The resulting solution was stored at […].

[2] = system: cholesterol biosynthesis; test: Measurement of cholesterol biosynthesis inhibitive activity in a rat liver cell; type: cell-based; conditions: isolated rat liver cells, [1-14C]acetic acid added 10 minutes after the specimen
Procedure: (§1) Measurement of Cholesterol and Triglyceride Biosynthesis Inhibitive Activities in a Rat Liver Cell
(§2) A liver cell was isolated from a male SD rat according to a usual method (collagenase perfusion method) and subjected to an experiment.
(§3) The isolated liver cells were planted in an amount of 500 μ1 every well on a Type collagen coated 24 well plate (cell density: 4×10^5 cell/ml). As the cell culture solution, a Williams'E medium (adjusted to pH 7.4) containing 10% FCS, 1 μM insulin, 1 μM dexamethasone, 100 units/ml penicillin and 10 μg/ml streptomycin was used. After the liver cells were incubated in a CO2 incubator for 2 hours, unstuck cells were removed and the liver cells were further incubated overnight.
(§4) After the culture medium was exchanged, the specimen diluted in a 10% DMSO-90% cell culture solution was added to each well in an amount of 5 μ1. DMSO (final concentration: 0.1%) was added to a control group. A [1-^14C]Acetic acid, sodium salt (5 μCi/well) was added to the media 10 minutes and 4 hours after the specimen was added for the measurement of cholesterol synthesis inhibitive action and for the measurement of triglyceride synthesis inhibitive action respectively, followed by culturing for further 2 hours.
(§5) After the cultivation was finished, the supernatant was removed and the cells were washed using PBS(−)(Phosphate buffered saline (Ca^2+, Mg^2+free) twice. Hexane/isopropyl alcohol (3:2, v/v) was added to the cells and the cells were then allowed to stand for 10 minutes to extract intracellular lipid. The extract was transferred to a glass tube and exsiccated under a nitrogen gas stream. Further, the exsiccated extract was washed with 25 mL of petroleum ether and then dissolved in petroleum ether containing the following components: 0.01% squalene, 0.3% free cholesterol, 0.3% cholesterol acetate, 0.1% triolein, 0.01% farnesol and 0.3% lanosterol.
(§6) The resulting solution was spotted on a TLC plate to perform an isolating operation. The spotted solution was developed for 10 minutes by using toluene/isopropyl ether (1:1, v/v) as the solvents and for further 15 minutes by using heptane in place of the above solvent after it was dried using air.
(§7) After the development was finished, the TLC plate was subjected to iodine color development. After each position of free cholesterol and triolein which were used as standards was confirmed, the image of the TLC plate was transferred to a BAS 2000 (Fuji Film) imaging plate by exposure performed for 16 hours. This transferred image was analyzed using a BAS 2000 IP Reader and an Imaging analyzer II to measure radiative activities contained in the free cholesterol and triglyceride fractions.
(§8) The cholesterol biosynthesis inhibitive activity was expressed by a concentration (IC50) at which 50% of the radiative activity of the control group was inhibited and the triceride biosynthesis inhibitive activity was expressed by an inhibition rate (%) to the control group.

[3] = system: triglyceride biosynthesis; test: Measurement of triglyceride biosynthesis inhibitive activity in a rat liver cell; type: cell-based; conditions: for inhibition at 1 µM: Rattus norvegicus, 6 h, read-out: Triglyceride biosynthesis inhibitive activity inhibition in 1 μM of the specimen
Procedure: as §1, §2, §3, §4, §5, §6, §7, §8

[4] = system: cholesterol biosynthesis; test: Measurement of cholesterol biosynthesis inhibitive activity in a rat; type: in vivo; conditions: 2 h; male SD rat, oral, dose 1 mg/kg, inhibition rate to control group
Procedure: Measurement of Cholesterol Biosynthesis Inhibitive Activity in a Rat
(I) An SPF grade male SD rat (4 weeks age, SLC) was bred for more than one week in a day-night-reversal room and subjected to an experiment made in the daytime. The compound dissolved in a 2% Tween 80 solution was administered (5 ml/kg) to the rat using an oral sonde. After one hour, a [1-^14C]Acetic acid, sodium salt (1.67-2.22 GBq/mmol, 37 MBq/ml, NEN) prepared by diluting to 1.85 MBq/ml by using physiological saline was intraabdominally administered (300 μ1/animal). After one hour, the rat was anesthetized by diethyl ether to carry out exsanguination from the aorta abdominalis. The collected blood was centrifuged at 3000 rpm for 10 minutes to prepare blood plasma.
(II) 1 ml of 4N KOH and 1 ml of ethanol were added to 2 ml of the blood plasma, which was then incubated at 65° C. for one hour and there after, 3 ml of petroleum ether was added. The plasma was shaken for 30 minutes. After the water phase was separated from the organic phase by centrifugation, it was frozen at −80° C. and the radiative activity of the organic phase was measured using a liquid scintillation counter. Or the organic phase was evaporated to dryness using nitrogen gas and the residue was dissolved as a marker in 25 µl of chloroform containing squalene, farnesol and cholesterol. This sample was applied to a TCL plate (Merck) and developed using toluene and isopropyl ether (1:1) for 15 to 20 minutes. A band of cholesterol was cut from the plate to measure the radiative activity by using a liquid scintillation counter. The cholesterol biosynthesis inhibition activity was expressed by an inhibition rate (%) to a control group.

Row | Compound | IC50 [1] [nM] | IC50 ([2]; 10 min) [nM] | inhibition at 1 µM [3] [%] | inhibition in vivo at 1 mg/kg [4] [%] | IC50 [2] [nM] | Triglyceride biosynthesis inhibitive activity inhibition in 1 μM of the specimen ([3]; isolated rat liver cells, 1 μM of the specimen, [1-14C]acetic acid added 4 hours after the specimen, inhibition rate to control group) [%]
1 | CO[C@H]1C(=O)N(c2ccc(C#C[C@@]3(O)CN4CCC3CC4)c(Cc3ccccc3)n2)C[C@H]1O [Example 124, (3R)-3-[2-Benzyl-6-[(3R,4R)-4-hydroxy-3-methoxy-2-pyrrolidinone-1-yl]-3-pyridyl]ethynyl-3-quinuclidinol] | 1.8 | 81 | 79 | – | – | –
2 | O[C@]1(C#Cc2ccc(OCC3OCCO3)nc2Cc2ccccc2)CN2CCC1CC2 [Example 153, (3R)-3-[2-Benzyl-6-(1,3-dioxolan-2-yl)methyloxy-3-pyridyl]ethynyl-3-quinuclidinol] | 11 | 55 | 85 | 82 | – | –
3 | (3R)-3-[Benzyl-6-(3,3-ethylenedioxypyrrolidine-1-yl]-3-pyridyl]ethynyl-3-quinuclidinol [Example 118] | 2.5 | – | – | – | 75 | 85
